Peptide text beside a SMILES is read from it. * marks the point of attachment. X1 = CC(=O)N[C@@H]1[C@@H](O)[C@H](O[C@@H]2O[C@H](CO)[C@@H](O[C@@H]3O[C@H](CO[C@H]4O[C@H](CO)[C@@H](O)[C@H](O)[C@@H]4O[C@@H]4O[C@H](CO)[C@@H](O[C@@H]5O[C@H](CO[C@]6(C(=O)O)C[C@H](O)[C@@H](NC(C)=O)[C@H]([C@H](O)[C@H](O)CO)O6)[C@H](O)[C@H](O)[C@H]5O)[C@H](O)[C@H]4NC(C)=O)[C@@H](O)[C@H](O[C@H]4O[C@H](CO)[C@@H](O)[C@H](O)[C@@H]4O[C@@H]4O[C@H](CO)[C@@H](O[C@@H]5O[C@H](CO[C@]6(C(=O)O)C[C@H](O)[C@@H](NC(C)=O)[C@H]([C@H](O)[C@H](O)CO)O6)[C@H](O)[C@H](O)[C@H]5O)[C@H](O)[C@H]4NC(C)=O)[C@@H]3O)[C@H](O)[C@H]2NC(C)=O)[C@@H](CO)O[C@H]1NC(=O)C*
Legend:
mouse GLP-1 receptor = target: T1, mouse GLP-1 receptor (Mus musculus, UniProt O35659); test: Test Example 6: ability to synthesize cAMP in mouse GLP-1 receptor-expressing CHO-K1 cells; format: cell-based
T1 construct: expressed in transfected cells
T1 sequence (O35659 22-463): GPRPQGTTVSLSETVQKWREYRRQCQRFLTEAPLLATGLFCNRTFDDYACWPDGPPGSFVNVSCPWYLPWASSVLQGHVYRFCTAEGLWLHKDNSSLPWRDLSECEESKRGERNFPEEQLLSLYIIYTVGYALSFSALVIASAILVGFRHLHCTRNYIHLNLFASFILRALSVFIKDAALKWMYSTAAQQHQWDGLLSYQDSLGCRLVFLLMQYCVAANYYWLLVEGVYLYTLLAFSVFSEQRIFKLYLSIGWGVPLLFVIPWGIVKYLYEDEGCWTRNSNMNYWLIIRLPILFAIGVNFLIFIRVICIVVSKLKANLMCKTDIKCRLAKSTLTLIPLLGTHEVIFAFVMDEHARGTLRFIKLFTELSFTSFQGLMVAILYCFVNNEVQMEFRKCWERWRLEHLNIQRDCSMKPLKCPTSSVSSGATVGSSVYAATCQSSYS
Method: 1. Construction of Mouse GLP-1 Receptor-Expressing Vector
A mouse GLP1 receptor sense primer (5′-[…]-3′) (SEQ ID NO: 152) and a mouse GLP-1 receptor antisense primer (5′-[…]-3′) (SEQ ID NO: 153) capable of binding to the 5′ and 3′ ends of mouse GLP-1 receptor cDNA were separately synthesized. PCR was performed using Ex Taq polymerase (TaKaRa) with cDNA (Clone ID: 40046534, Open Biosystems) as a template. Specifically, 50 μL in total of reaction solution consisting of 1 μL of template cDNA (10 ng/μL), 4 μL of 2.5 mM dNTPs, 1 μL of primer solution mixtures (each 50 μM), 5 μL of ×10 Ex Taq polymerase Buffer, 0.25 μL of Ex Taq polymerase and 38.75 μL of sterilized water was used and allowed to react by 94° C. for 1 minute; 94° C. for 45 seconds, 55° C. for 1 minute and 72° C. for 2 minutes (35 cycles); and 72° C. for 10 minutes. The PCR reaction product was electrophoresed on 1% agarose gel, and the cDNA fragment was purified using Wizard SV Gel and PCR Clean-up System (Promega) and treated with restriction enzymes (EcoRI and NheI) to obtain mouse GLP-1 receptor cDNA.
To efficiently obtain cells highly expressing a mouse GLP-1 receptor, a pIRES-gfp vector was used as an expression vector. This vector was prepared by inserting, to a vector pEGFP-N1 (Clontech), an IRES gene-containing DNA fragment obtained by the restriction enzyme treatment (Sal I and BamHI) of pIRESpuro2 (Clontech).
The mouse GLP-1 receptor cDNA fragment was inserted to pIRES-gfp to thereby obtain a mouse GLP-1 receptor-expressing vector mGLP-1R/pIRES-gfp. The DNA sequence of the obtained vector was confirmed using ABI3100-Avant (Applied Biosystems).
2. Preparation of Mouse GLP-1 Receptor-Expressing CHO-K1 Cells
CHO-K1 cells (ATCC catalog No. CCL-61) were transfected with the obtained mGLP-1R/pIRES-gfp using FuGENE (registered trademark) (Roche) according to the instruction manual. The transfected CHO-K1 cells were cultured in RPMI1640 medium (Wako Pure Chemical Industries) containing 10% FCS (Hyclone) and penicillin-streptomycin (SIGMA). Drug selection was conducted by the addition of 1.0 mg/ml G418 (Wako Pure Chemical Industries). The drug resistance cells were sorted with a cell sorter (EPICS ALTRA, Beckman Coulter) using a GFP expression level as an index. After the sorting, the limiting dilution method was conducted to obtain cells highly expressing GFP, namely, cells highly expressing a mouse GLP-1 receptor. The obtained cells were used as mouse GLP-1 receptor-expressing CHO-K1 cells in the experiment shown below.
3. Analysis of Agonist Effect of Oligosaccharide Chain Added GLP-1 Peptide (Ability to Synthesize cAMP)
The mouse GLP-1 receptor-expressing CHO-K1 cells prepared in the preceding paragraph 2 were used to evaluate the agonist effect of the oligosaccharide chain added GLP-1 peptide using the ability to synthesize cAMP as an index.
The mouse GLP-1 receptor-expressing CHO-K1 cells were suspended at a concentration of 5×10^5 cells/ml in RPMI1640 medium containing 10% FCS. The cell suspension was seeded at a concentration of 100 μL per well to a flat-bottomed 96-well plate (Falcon) and cultured at 5% CO2 at 37° C. for 16 hours. The culture supernatant was discarded. The oligosaccharide chain added GLP-1 peptide dissolved in Krebs Ringer bicarbonate Buffer containing 2.5 mM glucose was added at a concentration of 100 μL/well and cultured at 37° C. for 30 minutes. The culture supernatant was immediately discarded. The amount of cAMP synthesized in the mouse GLP-1 receptor-expressing CHO-K1 cells was measured using cAMP ELISA Kit (GE Healthcare or Cayman) and used as an index for the agonist effect of the oligosaccharide chain added GLP-1 peptide on mouse GLP-1 receptors.
GLP-1 increases intracellular cAMP concentrations through the binding to its receptor and promotes insulin secretion. Thus, the activity of the oligosaccharide chain added GLP-1 peptide was evaluated using the ability to synthesize cAMP as an index. […]

C57BL/6JJcl mice = test: Test Example 7: Oral Glucose Tolerance Test (OGTT); format: in vivo; conditions: for dose dependence of activity of suppressing rise in blood-sugar levels in OGTT: doses 0.9 nmol/kg and 0.09 nmol/kg intraperitoneal
Method in brief: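 Overnight-fasted mice received oral glucose 1 mg/g 30 minutes after treatment. Orbital blood taken before and at 30, 60, 120 minutes post-glucose. Blood glucose measured by glucometer.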

[1] = tested on: db/db (BKS.Cg-+Lepr db/+Lepr db/Jcl) mice; test: Test Example 8: effect of lowering blood-sugar levels in diabetes model mice; format: in vivo; conditions: 9 nmol/kg intraperitoneal; for effect of lowering blood-sugar levels in db/db mice: 10-week-old male mice; for durability of effect of lowering blood-sugar levels in db/db mice: up to 300 minutes
Method: The oligosaccharide chain added GLP-1 peptide prepared in Example 2, 3, 4, 21 or 23 or the GLP-1 prepared in Comparative Example 1 in a PBS solution (9 nmol/10 ml) was intraperitoneally administered at a dose of 10 ml/kg to BKS.Cg−+Lepr^db/+Lepr^db/Jcl mice (10 week old, male). Blood was collected from the orbits before the compound administration and 30 minutes, 60 minutes, 120 minutes, 180 minutes and 300 minutes after the compound administration. Blood-sugar levels were measured using ACCU-CHEK Aviva (Roche Diagnostics).
The db/db (BKS.Cg−+Lepr^db/+Lepr^db/Jcl) mice serving as diabetes model mice have a mutation in a receptor of leptin which is anorexigenic/energy metabolism-accelerating hormone and develops conditions such as obesity or hyperglycemia.
Blood-sugar levels were measured over time, and their effects of lowering blood-sugar levels were compared with that of the GLP-1 without oligosaccharide chain addition of Comparative Example 1.

[2] = 9 nmol/kg intraperitoneal 30 minutes before glucose 1 mg/g oral

| Compound | cAMP synthesis activity compared with GLP-1 (in words) (mouse GLP-1 receptor) | activity of suppressing rise in blood-sugar levels in OGTT (C57BL/6JJcl mice; 0.09 nmol/kg intraperitoneal) | effect of suppressing rise in blood-sugar levels in OGTT (C57BL/6JJcl mice; 0.9 nmol/kg intraperitoneal) | effect of suppressing rise in blood-sugar levels in OGTT (C57BL/6JJcl mice; [2]) | dose dependence of activity of suppressing rise in blood-sugar levels in OGTT (C57BL/6JJcl mice) | effect of lowering blood-sugar levels in db/db mice [1] | durability of effect of lowering blood-sugar levels in db/db mice [1] | efficacy relative to 30Cys GLP-1-disialo and 36Cys GLP-1-disialo at the same dose in OGTT (C57BL/6JJcl mice; 0.9 nmol/kg intraperitoneal) |
| --- | --- | --- | --- | --- | --- | --- | --- | --- |
| CC[C@H](C)[C@H](NC(=O)[C@H](Cc1ccccc1)NC(=O)[C@H](CCC(=O)O)NC(=O)[C@H](CCCCN)NC(=O)[C@H](C)NC(=O)[C@H](C)NC(=O)[C@H](CCC(N)=O)NC(=O)CNC(=O)[C@H](CCC(=O)O)NC(=O)[C@H](CC(C)C)NC(=O)[C@H](Cc1ccc(O)cc1)NC(=O)[C@H](CO)NC(=O)[C@H](CO)NC(=O)[C@@H](NC(=O)[C@H](CC(=O)O)NC(=O)[C@H](CO)NC(=O)[C@@H](NC(=O)[C@H](Cc1ccccc1)NC(=O)[C@@H](NC(=O)CNC(=O)[C@H](CCC(=O)O)NC(=O)[C@H](C)NC(=O)[C@@H](N)Cc1c[nH]cn1)[C@@H](C)O)[C@@H](C)O)C(C)C)C(=O)N[C@@H](CSCC(=O)N[C@@H]1O[C@H](CO)[C@@H](O[C@@H]2O[C@H](CO)[C@@H](O[C@@H]3O[C@H](CO[C@H]4O[C@H](CO)[C@@H](O)[C@H](O)[C@@H]4O[C@@H]4O[C@H](CO)[C@@H](O[C@@H]5O[C@H](CO[C@]6(C(=O)O)C[C@H](O)[C@@H](NC(C)=O)[C@H]([C@H](O)[C@H](O)CO)O6)[C@H](O)[C@H](O)[C@H]5O)[C@H](O)[C@H]4NC(C)=O)[C@@H](O)[C@H](O[C@H]4O[C@H](CO)[C@@H](O)[C@H](O)[C@@H]4O[C@@H]4O[C@H](CO)[C@@H](O[C@@H]5O[C@H](CO[C@]6(C(=O)O)C[C@H](O)[C@@H](NC(C)=O)[C@H]([C@H](O)[C@H](O)CO)O6)[C@H](O)[C@H](O)[C@H]5O)[C@H](O)[C@H]4NC(C)=O)[C@@H]3O)[C@H](O)[C@H]2NC(C)=O)[C@H](O)[C@H]1NC(C)=O)C(=O)N[C@@H](Cc1c[nH]c2ccccc12)C(=O)N[C@@H](CC(C)C)C(=O)N[C@H](C(=O)N[C@@H](CCCCN)C(=O)NCC(=O)N[C@@H](CCCNC(=N)N)C(=O)NCC(=O)O)C(C)C [Example 21, 30Cys GLP-1-disialo] (H-HAEGTFTSDVSSYLEGQAAKEFIC(X1)WLVKGRG-OH) | activity equal to or more than that of the GLP-1 | weaker activity of suppressing rise in blood-sugar levels than that of the 36Cys GLP-1-disialo at the same dose | suppressed rise in blood-sugar levels almost completely | strong effect of suppressing rise in blood-sugar levels | dose-dependent activity of suppressing rise in blood-sugar levels | strong effect of lowering blood-sugar levels | blood-sugar levels were kept at low levels after 300 minutes | – |
| CC[C@H](C)[C@H](NC(=O)[C@H](Cc1ccccc1)NC(=O)[C@H](CCC(=O)O)NC(=O)[C@H](CCCCN)NC(=O)[C@H](C)NC(=O)[C@H](C)NC(=O)[C@H](CCC(N)=O)NC(=O)CNC(=O)[C@H](CCC(=O)O)NC(=O)[C@H](CC(C)C)NC(=O)[C@H](Cc1ccc(O)cc1)NC(=O)[C@H](CO)NC(=O)[C@H](CO)NC(=O)[C@@H](NC(=O)[C@H](CC(=O)O)NC(=O)[C@H](CO)NC(=O)[C@@H](NC(=O)[C@H](Cc1ccccc1)NC(=O)[C@@H](NC(=O)CNC(=O)[C@H](CCC(=O)O)NC(=O)[C@H](C)NC(=O)[C@@H](N)Cc1c[nH]cn1)[C@@H](C)O)[C@@H](C)O)C(C)C)C(=O)N[C@@H](C)C(=O)N[C@@H](Cc1c[nH]c2ccccc12)C(=O)N[C@@H](CC(C)C)C(=O)N[C@H](C(=O)N[C@@H](CSCC(=O)N[C@@H]1O[C@H](CO)[C@@H](O[C@@H]2O[C@H](CO)[C@@H](O[C@@H]3O[C@H](CO[C@H]4O[C@H](CO)[C@@H](O)[C@H](O)[C@@H]4O[C@@H]4O[C@H](CO)[C@@H](O[C@@H]5O[C@H](CO[C@]6(C(=O)O)C[C@H](O)[C@@H](NC(C)=O)[C@H]([C@H](O)[C@H](O)CO)O6)[C@H](O)[C@H](O)[C@H]5O)[C@H](O)[C@H]4NC(C)=O)[C@@H](O)[C@H](O[C@H]4O[C@H](CO)[C@@H](O)[C@H](O)[C@@H]4O[C@@H]4O[C@H](CO)[C@@H](O[C@@H]5O[C@H](CO[C@]6(C(=O)O)C[C@H](O)[C@@H](NC(C)=O)[C@H]([C@H](O)[C@H](O)CO)O6)[C@H](O)[C@H](O)[C@H]5O)[C@H](O)[C@H]4NC(C)=O)[C@@H]3O)[C@H](O)[C@H]2NC(C)=O)[C@H](O)[C@H]1NC(C)=O)C(=O)NCC(=O)N[C@@H](CCCNC(=N)N)C(=O)NCC(=O)O)C(C)C [Example 23, 34Cys GLP-1-disialo] | activity equal to or more than that of the GLP-1 | – | – | strong effect of suppressing rise in blood-sugar levels | dose-dependent activity of suppressing rise in blood-sugar levels | strong effect of lowering blood-sugar levels | effects of lowering blood-sugar levels were slightly weakened over time | about ½ |
